{"source": "ChEMBL document CHEMBL1141856", "about": "“Iridoid glycosides of Leonurus persicus” (J Nat Prod, 1999)", "system": "Staphylococcus epidermidis", "test": "Antimicrobial activity against Staphylococcus epidermidis at 50 ug/spot by agar overlay method", "type": "functional, organism-based", "note": "The source made the active and inactive calls. The calls are words filed in the database; no cut-off is given here."}
{"compound": "COc1cc(/C=C/C(=O)O[C@H]2[C@H](O[C@@H]3O[C@@H](C)[C@H](O)[C@@H](O)[C@H]3O)[C@@H](O)[C@H](OCCc3ccc(O)c(O)c3)O[C@@H]2CO)ccc1O", "values": [{"measurement": "Activity", "result": "Active"}]}
